The source of these data is US11779014B2, “Adjuvants” (SYNGENTA PARTICIPATIONS AG, priority 2017, dated 2023).

A short description of data set [1]: De-gelling temperature of aqueous surfactant blends by low shear rheology (Bohlin Gemini rheometer, storage modulus vs temperature). It counts as physicochemical. The procedure:
The temperatures at which blends of capped and uncapped surfactants de-gel were determined by standard low shear rheology with a Bohlin™ Gemini rheometer. The storage modulus (G′) at 1 Hz was determined at a strain of 0.001-0.002 in a standard C14 cup and bob geometry over a temperature range of 5-70° C., the exact range depending on the de-gelling point of the sample. Plots of storage modulus versus temperature were constructed and the de-gelling temperature was taken to be the point at which the modulus begins to fall rapidly from its high value in the gelled state (typically ca. 10^5 Pa) down to the final value in the de-gelled state (less than 10 Pa). Blends of surfactants were prepared at from 25 to 40% w/w total surfactant concentration in water. Samples were left in an oven at 55° C. for several days to ensure that the mixtures were homogeneous. Samples were placed in the C14 cup and the samples were de-gelled by raising the temperature in the rheometer, the bob was then inserted and the sample was then cooled at 1° C./min, whilst the storage modulus was regularly recorded during the cooling. Once the final temperature had been reached (i.e. when the sample had gelled), the temperature was then increased again and the modulus again recorded. The de-gelling temperature was determined from the increasing temperature cycle.
Degelling temperatures—the measurements relied on the same method as for ‘Example 1’ but just at 30% w/w total surfactant concentration.
De-gelling temperatures were measured using the same method as in Example 1.
(§1) This example provides de-gelling, cloud point and adjuvancy data for dodecyl 23 ethoxylate with n-hexyl cap and hexadecyl 20 ethoxylate with n-hexyl cap Cloud points were measured as described in example 1 for 1% aqueous solutions of the capped and uncapped surfactants both individually and as blends (see Table 30). Degelling temperatures were also measured as outlined in example 1 for 25, 30, 35 and 40% aqueous solutions of the capped and uncapped surfactants both individually and as blends (see Table 31).
(§2) This example provides de-gelling, cloud point and adjuvancy data for oleyl 20 ethoxylate with n-butyl, n-pentyl or benzyl ether caps end capped oleyl 20 ethoxylate. Cloud points were measured as described in example 1 for 1% aqueous solutions of the capped and uncapped surfactants both individually and as blends. Degelling temperatures were also measured as outlined in example 1 for 25, 30, 35 and 40% aqueous solutions o of the capped and uncapped surfactants both individually and as blends.

Data set [2] can be described thus: Cloud point measurement (absorbance at 500 nm as a function of temperature). It counts as physicochemical. The procedure: Consistent with the standard method for measuring the cloud point of surfactants, the cloud point of each of the above blends was measured at a total concentration of 1% w/w in water using a Perkin Elmer spectrophotometer fitted with a PTP6 temperature controller. The absorbance of the solution at 500 nm wavelength was determined as a function of temperature. The cloud point was recorded as the onset of a rapid increase in absorbance as the solution began to cloud.
Cloud point—the measurements relied on the same method as for ‘Example 1’
Cloud points—were measured using the same method as in Example 1.
as §1, §2

A further data set deals with Avena fatua (AVEFA). Put plainly: Glasshouse adjuvancy test for pinoxaden on AVEFA. The format is in vivo. The conditions noted are these: pinoxaden 15 g ai/ha, total surfactant 0.2% w/v, 21 days. The method, then: The efficacy of 1:1 blends of oleyl 20EO with oleyl 20EO with either n-hexanoyl, n-octanoyl or 2-ethyl hexanoyl ester caps as adjuvants for the herbicide pinoxaden was tested in a glasshouse against two weed species, sown into standard soil in pots and cultivated under controlled conditions in a glasshouse (20/16° C. day/night; 16 hours light; 65% humidity). Pinoxaden was added to the spray tank as a standard EC (emulsifiable concentrate) formulation. The plants were sprayed with pinoxaden at rates of 7.5 or 15 grams of pesticide per hectare using a laboratory track sprayer which delivered the aqueous spray composition at a rate of 200 litres per hectare, using a flat fan nozzle (Teejet 11002VS) at 2 bar. The spray solutions also contained the oleyl 20EO alone or in the 1:1 blends with the capped surfactants. The adjuvants were added to the spray solution at a total surfactant rate of 0.2% w/v. All spray solutions also contained 10% w/w of iso-propanol. The weed species and their BBCH growth stage at spraying were Avena fatua (AVEFA; growth stage 13) and Setaria viridis (SETVI; growth stage 13). Each spray test was replicated three times. The test plants were then grown in a glasshouse under controlled conditions (20/16° C. day/night; 16 hours light; 65% humidity) and watered twice a day. The efficacy of the herbicide was assessed visually and expressed as a percentage of the leaf area killed. Samples were assessed at a time period of 21 days following application.
Dodecyl 23EO and hexadecyl 20EO were capped with an n-hexyl ether cap. The efficacy of 1:1 blends of these with their uncapped counterparts were tested as adjuvants for the herbicide pinoxaden was tested in a glasshouse against two weed species, sown into standard soil in pots and cultivated under controlled conditions in a glasshouse (20/16° C. day/night; 16 hours light; 65% humidity). Pinoxaden was added to the spray tank as a standard EC (emulsifiable concentrate) formulation. The plants were sprayed with pinoxaden at a.i. rates of 7.5 or 15 grams per hectare using a laboratory track sprayer which delivered the aqueous spray composition at a rate of 200 litres per hectare, using a flat fan nozzle (Teejet 11002VS) at 2 bar. The spray solutions tested included the capped and uncapped alone or in the 1:1 blends with the capped surfactants. The adjuvants were added to the spray solution at a total surfactant rate of 0.2% w/v. All spray solutions also contained 10% w/w of iso-propanol. The weed species and their BBCH growth stage at spraying was Avena fatua (AVEFA; growth stage 12). Each spray test was replicated three times. The test plants were then grown in a glasshouse under controlled conditions (20/16° C. day/night; 16 hours light; 65% humidity) and watered twice a day. The efficacy of the herbicide was assessed visually and expressed as a percentage of the leaf area killed. Samples were assessed at a time period of 21 days following application.
Oleyl 20EO was capped with -butyl, n-pentyl and n-benzyl caps. The efficacy of 1:1 blends of these with their uncapped counterparts were tested as adjuvants for the herbicide pinoxaden was tested in a glasshouse against two weed species, sown into standard soil in pots and cultivated under controlled conditions in a glasshouse (20/16° C. day/night; 16 hours light; 65% humidity). Pinoxaden was added to the spray tank as a standard EC (emulsifiable concentrate) formulation. The plants were sprayed with pinoxaden at a.i. rates of 7.5 or 15 grams per hectare using a laboratory track sprayer which delivered the aqueous spray composition at a rate of 200 litres per hectare, using a flat fan nozzle (Teejet 11002VS) at 2 bar. The spray solutions tested included the capped and uncapped alone or in the 1:1 blends with the capped surfactants. The adjuvants were added to the spray solution at a total surfactant rate of 0.2% w/v. All spray solutions also contained 10% w/w of iso-propanol.

In data set [3] the test system is Chenopodium album (CHEAL). Kind of data set: Glasshouse adjuvancy test for nicosulfuron on CHEAL. It counts as in vivo. The method, then: (§3) The biological efficacies of blends of an oleyl 20 ethoxylate uncapped surfactant with an oleyl 20 ethoxylate surfactant with an n-hexyl ether cap as adjuvants for the herbicide nicosulfuron were tested in a glasshouse against three weed species sown into standard soil in pots and cultivated under controlled conditions in a glasshouse (24/18° C. day/night; 16 hours light; 65% humidity). Nicosulfuron was added to the spray tank as a standard WG (water dispersible granule) formulation. The plants were sprayed with nicosulfuron at rates of 15 or 60 grams of pesticide per hectare using a laboratory track sprayer which delivered the aqueous spray composition at a rate of 200 litres per hectare, using a flat fan nozzle (Teejet 11002VS) at 2 bar. The adjuvants were added to the spray solution at a total rate of 0.1 or 0.2% w/v in all cases and at extra lower rates for the oleyl 20EO alone and its 1:1 blend with the oleyl 20EO n-hexyl ether to show the dose response to these adjuvants. All spray solutions also contained 10% w/w of iso-propanol. The weed species and their BBCH growth stage at spraying were Chenopodium album (CHEAL; growth stage 15), Digitaria sanguinalis (DIGSA; growth stage 14), and Commelina benghalensis (COMBE; growth stage 14). Each spray test was replicated three times. The test plants were then grown in a glasshouse under controlled conditions (24/18° C. day/night; 16 hours light; 65% humidity) and watered twice a day. The efficacy of the herbicide was assessed visually and expressed as a percentage of the leaf area killed. Samples were assessed at a time period of 21 days following application. The following tables (3-8) show the effect of blends of the two surfactants at a total concentration of 0.2 and 0.1%. In each case the blends were 1:0, 3:1, 1:1, 1:3 and 0:1 w/w of oleyl 20EO:oleyl 20 EO n-hexyl ether.
The biological efficacies of blends of oleyl 20 ethoxylate and oleyl 20EO ethoxylate with a benzoate cap as adjuvants for the herbicide nicosulfuron were tested in a glasshouse using the same method as for ‘Example 1’ but against just two weed species and with just 0.2% w/v total adjuvant concentration. The weed species and their BBCH growth stage at spraying HI were Chenopodium album (CHEAL; growth stage 13-15) and Digitaria sanguinalis (DIGSA; growth stage 14-22).
The biological efficacies of 1:1 blends of an oleyl 20 ethoxylate uncapped surfactant with oleyl 20E ethoxylate surfactants with hexanoyl, n-octanoyl or 2-ethyl hexanoyl ester caps as adjuvants for the herbicide nicosulfuron were tested in a glasshouse using the same method as for ‘Example 1’ but against just one weed species and at 0.2% w/v tital adjuvant concentration. The weed species and its BBCH growth stage at spraying was Chenopodium album (CHEAL; growth stage 15).

The subject of data set [4] is Digitaria sanguinalis (DIGSA). Kind of data set: Glasshouse adjuvancy test for nicosulfuron on DIGSA. It counts as in vivo. The procedure: as §3, with “ether. The biological efficacies of blends of oleyl 20 ethoxylate and oleyl 20EO ethoxylate with a benzoate cap as adjuvants for the herbicide nicosulfuron were tested in a glasshouse using the same method as for ‘Example 1’ but against just two weed species and with just 0.2% w/v total adjuvant concentration. The weed species and their BBCH growth stage at spraying HI were Chenopodium album (CHEAL; growth stage 13-15) and Digitaria sanguinalis (DIGSA; growth stage 14-22).” for “ether.”

The mark [5] stands for this setting: dose response, nicosulfuron 15 g ai/ha, adjuvant 0%.
[6] abbreviates: dose response, nicosulfuron 60 g ai/ha, adjuvant 0%.

In the case of Dodecyl 23EO n-hexyl ether, the De-gelling temperature in data set [1] (total surfactant concentration 25% w/w, Table 31) is below 5 °C; in data set [1] (total surfactant concentration 30% w/w, Table 31), below 5 °C; in data set [1] (total surfactant concentration 35% w/w, Table 31) it was below 5 °C; in data set [1] (total surfactant concentration 40% w/w, Table 31) it was 7.4 °C. The same molecule gave a Cloud point in data set [2] (1% aqueous solutions, Table 30) of 67.2 °C. The Mean control with Avena fatua (AVEFA) (Example 7, growth stage 12) is listed as 86%.
In data set [1] (40% w/w, Table 19), `CCCCCCCC/C=C\CCCCCCCCOCCOCCOCCOCCOCCOCCOCCOCCOCCOCCOCCOCCOCCOCCOCCOCCOCCOCCOCCOCCOC(=O)CCCCCCC` [Oleyl 20EO n-octanoyl ester, oleyl 20EO n-octanoyl ester] gave a De-gelling temperature of 16.5 °C.
Turning to Oleyl 20EO n-butyl ether, the Mean control in the data set with Avena fatua (AVEFA) (Example 9, growth stage 12) stood at 96.3%.
Regarding `COc1cc(OC)nc(NC(=O)NS(=O)(=O)c2ncccc2C(=O)N(C)C)n1` [nicosulfuron], the Mean control in data set [3] (setting [5]) turned out to be 4.0%; in data set [3] (setting [6]) it was 8.3%; in data set [4] (setting [5]), 4.0%; in data set [4] (setting [6]) it was 33.3%.
In the case of `CCCCCCCC/C=C\CCCCCCCCOCCOCCOCCOCCOCCOCCOCCOCCOCCOCCOCCOCCOCCOCCOCCOCCOCCOCCOCCOCCOC(=O)CCCCC` [Oleyl 20EO n-hexanoyl ester, oleyl 20EO n-hexanoyl ester], in data set [1] (total surfactant concentration 40% w/w, Table 18), the Degelling temperature turned out to be 13.6 °C. Also, the Cloud point in data set [2] (1%, Table 20) amounted to 28.0 °C.
In turn, `CCCCCCCC/C=C\CCCCCCCCOCCOCCOCCOCCOCCOCCOCCOCCOCCOCCOCCOCCOCCOCCOCCOCCOCCOCCOCCOCCOC(=O)c1ccccc1` [Oleyl 20EO benzoate, oleyl 20 ethoxylate benzoate] displayed a De-gelling temperature in data set [1] (30% w/w total surfactant concentration, Table 15) below 3.8 °C. In data set [2] (1%, Table 15), this molecule displayed a Cloud point of 27.3 °C. Besides, the Mean control in data set [3] (nicosulfuron 15 g ai/ha, 0.2% w/v total adjuvant, Example 3, growth stage 13-15) amounted to 75.0%; in data set [3] (nicosulfuron 60 g ai/ha, 0.2% w/v total adjuvant, Example 3, growth stage 13-15) it was 81.7%; in data set [4] (nicosulfuron 15 g ai/ha, 0.2% w/v total adjuvant, Example 3, growth stage 14-22), 96.7%; in data set [4] (nicosulfuron 60 g ai/ha, 0.2% w/v total adjuvant, Example 3, growth stage 14-22), 99.3%.
